# Literature values, collected in patent US20230066947A1, “Method for the augmentation of substance abuse therapies using cannabinoid formulations” (priority 2021, published 2023).
# Like-named read-outs stand apart in the source and are kept apart here.
# Key:
# COX-2 = target: T1, COX-2 (Homo sapiens, UniProt P35354); details: compared with common NSAIDS
# T1 sequence (P35354 18-604): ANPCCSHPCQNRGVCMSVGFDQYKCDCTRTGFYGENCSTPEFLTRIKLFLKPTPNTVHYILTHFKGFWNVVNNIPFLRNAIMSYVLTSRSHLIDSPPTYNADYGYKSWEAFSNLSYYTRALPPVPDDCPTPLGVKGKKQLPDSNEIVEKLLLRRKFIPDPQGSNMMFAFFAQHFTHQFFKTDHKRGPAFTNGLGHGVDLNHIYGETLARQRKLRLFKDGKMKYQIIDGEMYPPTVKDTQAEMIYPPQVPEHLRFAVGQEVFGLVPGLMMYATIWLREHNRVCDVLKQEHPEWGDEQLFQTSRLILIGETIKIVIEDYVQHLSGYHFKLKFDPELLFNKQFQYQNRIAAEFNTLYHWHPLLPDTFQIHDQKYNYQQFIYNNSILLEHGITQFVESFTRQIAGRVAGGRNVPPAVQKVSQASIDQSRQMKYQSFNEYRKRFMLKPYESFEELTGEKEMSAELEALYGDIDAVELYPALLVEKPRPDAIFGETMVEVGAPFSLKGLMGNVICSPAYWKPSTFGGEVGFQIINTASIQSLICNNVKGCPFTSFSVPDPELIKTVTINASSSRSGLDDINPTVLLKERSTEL
# [1] = tested on: specific serotonin receptor linked to anti-nausea and anti-anxiety effects
smiles,measurement,setting,value
C=C(C)[C@@H]1CCC(C)=C[C@H]1c1c(O)cc(CCCCC)c(C(=O)O)c1O [CBDA],bioavailability,intraperitoneal administration,80%
same,bioavailability,orally ingested,approximately 20%
same,COX-2 inhibitor behavior,COX-2,same COX-2 inhibitor behavior
same,affinity to bind to a specific serotonin receptor,[1],far greater affinity
